ChEMBL document CHEMBL6092192 (J Med Chem, 2024)

System: KB 3-1
Test: Reversal of paclitaxel resistance in human KB 3-1 cells assessed as reversal fold by measuring ratio of paclitaxel IC50 to paclitaxel IC50 in presence of test compound at 4 uM incubated for 72 hrs by MTT assay
Type: functional

In the case of `O=c1c2c([nH]c3nc(SCc4nc5ccccc5s4)nn13)CCC2`, the “Ratio IC50” value is reported as 1.39.
